Patent US11407757B2, “Heterocycle compounds as Tyro3, Axl and MerTK (TAM) family of receptor tyrosine kinase inhibitors” (Development Center for Biotechnology, priority 2017, dated 2022)

Tests used:
[1] = biological target: Mer kinase (Homo sapiens (Human), UniProt Q12866); experiment: Mer kinase assay (AlphaScreen); conditions: read-out: Mer kinase IC50; activity level class
[2] = biological target: Axl kinase (Homo sapiens (Human), UniProt P30530); experiment: Axl kinase assay (AlphaScreen); assay type: biochemical; conditions: activity level class
Sequence of Axl kinase (P30530 26-894): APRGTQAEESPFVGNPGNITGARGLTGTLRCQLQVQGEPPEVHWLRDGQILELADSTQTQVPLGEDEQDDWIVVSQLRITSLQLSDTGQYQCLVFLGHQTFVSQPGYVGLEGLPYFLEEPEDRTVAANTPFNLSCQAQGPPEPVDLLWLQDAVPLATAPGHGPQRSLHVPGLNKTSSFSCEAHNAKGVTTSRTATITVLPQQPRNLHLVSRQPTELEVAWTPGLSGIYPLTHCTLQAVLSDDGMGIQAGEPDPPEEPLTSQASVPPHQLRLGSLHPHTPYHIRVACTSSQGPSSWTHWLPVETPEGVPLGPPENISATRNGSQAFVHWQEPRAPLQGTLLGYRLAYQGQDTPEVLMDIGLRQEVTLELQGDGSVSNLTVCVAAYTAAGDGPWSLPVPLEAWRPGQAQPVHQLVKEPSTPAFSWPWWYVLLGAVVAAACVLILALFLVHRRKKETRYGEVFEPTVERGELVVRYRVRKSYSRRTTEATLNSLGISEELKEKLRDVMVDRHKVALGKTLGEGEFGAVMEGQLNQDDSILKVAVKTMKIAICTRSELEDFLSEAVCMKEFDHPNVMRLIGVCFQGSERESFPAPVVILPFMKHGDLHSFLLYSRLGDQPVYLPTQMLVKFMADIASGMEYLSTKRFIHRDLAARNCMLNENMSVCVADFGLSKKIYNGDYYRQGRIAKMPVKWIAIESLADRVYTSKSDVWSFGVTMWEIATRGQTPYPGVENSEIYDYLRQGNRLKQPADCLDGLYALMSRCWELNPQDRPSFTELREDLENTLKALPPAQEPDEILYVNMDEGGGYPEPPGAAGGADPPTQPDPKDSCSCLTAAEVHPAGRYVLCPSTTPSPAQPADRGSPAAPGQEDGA

Sequence of Mer kinase (Q12866 21-999): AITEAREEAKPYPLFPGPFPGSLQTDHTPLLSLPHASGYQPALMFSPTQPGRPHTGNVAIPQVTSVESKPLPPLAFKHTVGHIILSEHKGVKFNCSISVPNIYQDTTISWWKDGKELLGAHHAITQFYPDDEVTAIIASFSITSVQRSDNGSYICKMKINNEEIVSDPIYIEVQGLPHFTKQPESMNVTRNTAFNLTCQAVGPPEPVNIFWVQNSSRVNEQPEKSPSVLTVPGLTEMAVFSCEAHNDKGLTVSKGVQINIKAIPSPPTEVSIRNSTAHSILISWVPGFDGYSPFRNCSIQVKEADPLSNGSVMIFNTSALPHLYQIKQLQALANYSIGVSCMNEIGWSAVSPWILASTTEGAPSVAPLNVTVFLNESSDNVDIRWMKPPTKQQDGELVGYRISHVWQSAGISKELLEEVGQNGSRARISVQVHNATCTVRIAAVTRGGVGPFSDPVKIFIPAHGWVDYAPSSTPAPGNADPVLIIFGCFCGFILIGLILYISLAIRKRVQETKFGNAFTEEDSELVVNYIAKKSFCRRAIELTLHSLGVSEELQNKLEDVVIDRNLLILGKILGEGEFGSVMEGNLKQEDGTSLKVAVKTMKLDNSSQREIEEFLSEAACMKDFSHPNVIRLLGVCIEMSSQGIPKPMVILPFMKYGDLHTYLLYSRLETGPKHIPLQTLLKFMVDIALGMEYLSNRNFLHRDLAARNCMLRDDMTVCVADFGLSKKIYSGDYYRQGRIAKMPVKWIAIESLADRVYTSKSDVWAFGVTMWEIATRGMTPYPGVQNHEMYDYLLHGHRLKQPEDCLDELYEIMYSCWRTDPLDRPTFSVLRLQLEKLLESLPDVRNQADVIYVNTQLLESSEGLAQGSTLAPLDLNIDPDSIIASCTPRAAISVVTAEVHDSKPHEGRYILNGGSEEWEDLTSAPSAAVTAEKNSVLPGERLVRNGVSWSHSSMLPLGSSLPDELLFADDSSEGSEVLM

Row | IC50 [1] [µM] | IC50 [2] [µM] | Compound
1 | > 1 | – | COCCOc1nc(Nc2ccc(CN3CCN(C)CC3)cc2)nc2[nH]cc(-c3ccc(C(F)(F)F)cc3)c12 [Compound 84, 4-(2-methoxyethoxy)-N-(4-((4-methylpiperazin-1-yl)methyl)phenyl)-5-(4-(trifluoromethyl)phenyl)-7H-pyrrolo[2,3-d]pyrimidin-2-amine]
2 | > 1 | – | COc1nc(Nc2ccc(CN3CCC(N)CC3)cc2)nc2[nH]cc(-c3ccc(S(=O)(=O)N(C)C)cc3)c12 [Compound 6, 4-(2-((4-((4-aminopiperidin-1-yl)methyl)phenyl)amino)-4-methoxy-7H-pyrrolo[2,3-d]pyrimidin-5-yl)-N,N-dimethylbenzene-sulfonamide]
3 | > 1 | – | COc1nc(Nc2ccc(CN3CCN(C)CC3)cc2)nc2[nH]cc(-c3ccc(OCc4ccccc4)cc3F)c12 [Compound 46, 5-(4-(benzyloxy)-2-fluorophenyl)-4-methoxy-N-(4-((4-methylpiperazin-1-yl)methyl)phenyl)-7H-pyrrolo[2,3-d]pyrimidin-2-amine]
4 | > 1 | – | COc1nc(Nc2ccc(CN3CCC(C)CC3)cc2)nc2[nH]cc(-c3ccc(NC(=O)c4cc(C)n(C)n4)cc3)c12 [Compound 26, N-(4-(4-methoxy-2-((4-((4-methylpiperidin-1-yl)methyl)phenyl)amino)-7H-pyrrolo[2,3-d]pyrimidin-5-yl)phenyl)-1,5-dimethyl-7H-pyrazole-3-carboxamide]
5 | > 1 | – | CCN(CC)S(=O)(=O)c1ccc(-c2c[nH]c3nc(Nc4ccc(CN5CCN(C)CC5)cc4)nc(OCCOC)c23)cc1 [Compound 86, N,N-diethyl-4-(4-(2-methoxyethoxy)-2-((4-((4-methylpiperazin-1-yl)methyl)phenyl)amino)-7H-pyrrolo[2,3-d]pyrimidin-5-yl)benzenesulfonamide]
6 | > 1 | – | COCCOc1nc(Nc2ccc(CN3CCN(C)CC3)cc2)nc2[nH]cc(-c3ccc(OCc4cnccc4OC)cc3F)c12 [Compound 99, 5-(2-fluoro-4-((4-methoxypyridin-3-yl)methoxy)phenyl)-4-(2-methoxyethoxy)-N-(4-((4-methylpiperazin-1-yl)methyl)phenyl)-7H-pyrrolo[2,3-d]pyrimidin-2-amine]
7 | > 1 | – | COCCOc1nc(Nc2ccc(CN3CCN(C)CC3)cc2)nc2[nH]cc(-c3ccc(S(=O)(=O)N4CCN(C)CC4)cc3)c12 [Compound 102, 4-(2-methoxyethoxy)-N-(4-((4-methylpiperazin-1-yl)methyl)phenyl)-5-(4-((4-methylpiperazin-1-yl)sulfonyl)phenyl)-7H-pyrrolo[2,3-d]pyrimidin-2-amine]
8 | > 1 | – | COCCOc1nc(Nc2ccc(CN3CCN(C)CC3)cc2)nc2[nH]cc(-c3ccc(S(=O)(=O)N4CCOCC4)cc3)c12 [Compound 88, 4-(2-methoxyethoxy)-N-(4-((4-methylpiperazin-1-yl)methyl)phenyl)-5-(4-(morpholinosulfonyl)phenyl)-7H-pyrrolo[2,3-d]pyrimidin-2-amine]
9 | > 1 | – | COCCOc1nc(Nc2ccc(CN3CCN(C)CC3)cc2)nc2[nH]cc(-c3ccc(S(=O)(=O)N4CC(C)CC(C)C4)cc3)c12 (stereo not shown) [Compound 87, 5-(4-((3,5-dimethylpiperidin-1-yl)sulfonyl)phenyl)-4-(2-methoxyethoxy)-N-(4-((4-methylpiperazin-1-yl)methyl)phenyl)-7H-pyrrolo[2,3-d]pyrimidin-2-amine]
10 | > 1 | – | COc1cc(-c2c[nH]c3nc(Nc4ccc(CN5CCC(C)CC5)cc4)nc(OC)c23)ccc1OCc1ccccc1 [Compound 44, 5-(4-(benzyloxy)-3-methoxyphenyl)-4-methoxy-N-(4-((4-methylpiperidin-1-yl)methyl)phenyl)-7H-pyrrolo[2,3-d] pyrimidin-2-amine]
11 | – | < 0.03 | COCCOc1nc(Nc2ccc(CN3CCN(C)CC3)cc2)nc2[nH]cc(-c3ccc(OCc4ncccc4C)cc3F)c12 [Compound 11, 5-(2-fluoro-4-((3-methylpyridin-2-yl)methoxy)phenyl)-4-(2-methoxyethoxy)-N-(4-((4-methylpiperazin-1-yl)methyl)phenyl)-7H-pyrrolo[2,3-d]pyrimidin-2-amine]
12 | – | < 0.03 | CN1CCN(Cc2ccc(Nc3nc(OCC4CCCO4)c4c(-c5ccc(F)cc5F)c[nH]c4n3)cc2)CC1 (stereo not shown) [Compound 52, 5-(2,4-difluorophenyl)-N-(4-((4-methylpiperazin-1-yl)methyl)phenyl)-4-((tetrahydrofuran-2-yl)methoxy)-7H-pyrrolo[2,3-d] pyrimidin-2-amine]
13 | – | < 0.03 | COc1nc(Nc2ccc(CN3CCN(C)CC3)cc2)nc2[nH]cc(-c3ccc(F)cc3)c12 [Compound 38, 5-(4-fluorophenyl)-4-methoxy-N-(4-((4-methylpiperazin-1-yl)methyl)phenyl)-7H-pyrrolo[2,3-d]pyrimidin-2-amine]
14 | – | < 0.03 | COCCOc1nc(Nc2ccc(CN3CCN(C)CC3)cc2)nc2[nH]cc(-c3ccc(OCc4cc(C)ccn4)cc3F)c12 [Compound 9, 5-(2-fluoro-4-((4-methylpyridin-2-yl)methoxy)phenyl)-4-(2-methoxyethoxy)-N-(4-((4-methylpiperazin-1-yl)methyl)phenyl)-7H-pyrrolo[2,3-d]pyrimidin-2-amine]
15 | – | < 0.03 | COCCOc1nc(Nc2ccc(CN3CCN(C)CC3)cc2)nc2[nH]cc(-c3ccc4c(cnn4C)c3)c12 [Compound 97, 4-(2-methoxyethoxy)-5-(1-methyl-7H-indazol-5-yl)-N-(4-((4-methylpiperazin-1-yl)methyl)phenyl)-7H-pyrrolo[2,3-d]pyrimidin-2-amine]
16 | – | < 0.03 | COCCOc1nc(Nc2ccc(CN3CCC(C)CC3)cc2)nc2[nH]cc(-c3ccc(OCc4ncccc4C)cc3F)c12 [Compound 111, 5-(2-fluoro-4-((3-methylpyridin-2-yl)methoxy)phenyl)-4-(2-methoxyethoxy)-N-(4-((4-methylpiperidin-1-yl)methyl)phenyl)-7H-pyrrolo[2,3-d]pyrimidin-2-amine]
17 | – | < 0.03 | CCN1CCN(Cc2ccc(Nc3nc(OC)c4c(-c5ccc(F)cc5F)c[nH]c4n3)cc2)CC1 [Compound 45, 5-(2,4-difluorophenyl)-N-(4-((4-ethylpiperazin-1-yl)methyl)phenyl)-4-methoxy-7H-pyrrolo [2,3-d]pyrimidin-2-amine]
18 | – | < 0.03 | COc1nc(Nc2ccc(CN3CCC(C)CC3)cc2)nc2[nH]cc(-c3ccc(NS(C)(=O)=O)cc3)c12 [Compound 4, N-(4-(4-methoxy-2-((4-((4-methylpiperidin-1-yl)methyl)phenyl)amino)-7H-pyrrolo[2,3-d]pyrimidin-5-yl)phenyl)methane-sulfonamide]
19 | – | < 0.03 | COCCOc1nc(Nc2ccc(CN3CCN(C)CC3)cc2)nc2[nH]cc(-c3ccc(F)cc3)c12 [Compound 85, 5-(4-fluorophenyl)-4-(2-methoxyethoxy)-N-(4-((4-methylpiperazin-1-yl)methyl)phenyl)-7H-pyrrolo[2,3-d]pyrimidin-2-amine]
20 | – | < 0.03 | COCCOc1nc(Nc2ccc(CN3CCN(C)CC3)cc2)nc2[nH]cc(-c3ccc(OCc4ccccn4)cc3F)c12 [Compound 92, 5-(2-fluoro-4-(pyridin-2-ylmethoxy)phenyl)-4-(2-methoxyethoxy)-N-(4-((4-methylpiperazin-1-yl)methyl)phenyl)-7H-pyrrolo[2,3-d]pyrimidin-2-amine]
21 | – | < 0.03 | COCCOc1nc(Nc2ccc(CN3CCN(C)CC3)cc2)nc2[nH]cc(-c3ccc(F)cc3F)c12 [Compound 53, 5-(2,4-difluorophenyl)-4-(2-methoxyethoxy)-N-(4-((4-methylpiperazin-1-yl)methyl)phenyl)-7H-pyrrolo[2,3-d] pyrimidin-2-amine]
22 | – | < 0.03 | CCN1CCN(Cc2ccc(Nc3nc(OC)c4c(-c5ccc(O)cc5)c[nH]c4n3)cc2)CC1 [Compound 48, 4-(2-((4-((4-ethylpiperazin-1-yl)methyl)phenyl)amino)-4-methoxy-7H-pyrrolo[2,3-d]pyrimidin-5-yl)phenol]
23 | – | < 0.03 | COCCOc1nc(Nc2ccc(CN3CCN(C)CC3)cc2)nc2[nH]cc(-c3ccc(OCc4cccc(C)n4)cc3F)c12 [Compound 103, 5-(2-fluoro-4-((6-methylpyridin-2-yl)methoxy)phenyl)-4-(2-methoxyethoxy)-N-(4-((4-methylpiperazin-1-yl)methyl)phenyl)-7H-pyrrolo[2,3-d]pyrimidin-2-amine]
24 | – | < 0.03 | COCCOc1nc(Nc2ccc(CN3CCN(C)CC3)cc2)nc2[nH]cc(-c3ccc(OCc4ncccn4)cc3F)c12 [Compound 107, 5-(2-fluoro-4-(pyrimidin-2-ylmethoxy)phenyl)-4-(2-methoxyethoxy)-N-(4-((4-methylpiperazin-1-yl)methyl)phenyl)-7H-pyrrolo[2,3-d]pyrimidin-2-amine]
25 | – | < 0.03 | COCCOc1nc(Nc2ccc(CN3CCN(C)CC3)cc2)nc2[nH]cc(-c3ccc4nc(C)oc4c3)c12 [Compound 64, 4-(2-methoxyethoxy)-5-(2-methylbenzo[d]oxazol-6-yl)-N-(4-((4-methylpiperazin-1-yl)methyl)phenyl)-7H-pyrrolo[2,3-d] pyrimidin-2-amine]
26 | – | < 0.03 | COc1nc(Nc2ccc(CN3CCN(C)CC3)cc2)nc2[nH]cc(-c3ccc(O)cc3)c12 [Compound 17, 4-(4-methoxy-2-((4-((4-methylpiperazin-1-yl)methyl)phenyl)amino)-7H-pyrrolo [2,3-d]pyrimidin-5-yl)phenol]
27 | – | < 0.03 | COCCOc1nc(Nc2ccc(CN3CCN(C)CC3)cc2)nc2[nH]cc(-c3ccc(OCn4ccccc4=O)cc3F)c12 [Compound 68, 1-((3-fluoro-4-(4-(2-methoxyethoxy)-2-((4-((4-methylpiperazin-1-yl)methyl)phenyl)amino)-7H-pyrrolo[2,3-d]pyrimidin-5-yl)phenoxy)methyl) pyridin-2(1H)-one]
28 | – | < 0.03 | COCC(C)Oc1nc(Nc2ccc(CN3CCN(C)CC3)cc2)nc2[nH]cc(-c3ccc(F)cc3F)c12 (stereo not shown) [Compound 63, 5-(2,4-difluorophenyl)-4-((1-methoxypropan-2-yl)oxy)-N-(4-((4-methylpiperazin-1-yl)methyl)phenyl)-7H-pyrrolo[2,3-d]pyrimidin-2-amine]
